Tests used:
Poliovirus type-1 (Sb-1) = test: microbe, parasite or virus in culture; format: cell-based; conditions: Enterovirus C, Vero 76, read-out: EC50, plaque reduction Sb-1
[1] = Cytotoxicity in Vero-76 cell-line (MTT); format: cell-based; conditions: monkey (Cercopithecus aethiops), Vero-76 cells (mock-infected), mock-infected Vero-76 cells
Description: Vero-76 cells were seeded in 96-well plates at an initial density of 5 × 10^5 cells/ml, in Dulbecco’s Modified Eagle Medium (D-MEM) with L-glutamine and 25 mg/L kanamycin, supplemented with 10% FBS. Cell cultures were then incubated at 37°C in a humidified and 5% CO2 atmosphere, in the absence or presence of serial dilutions of test compounds. The test medium used for the cytotoxic assay as well as for antiviral assay contained 1% of the appropriate serum. Cell viability was determined after 48–96 h at 37°C by MTT method for Vero-76 ([Pauwels et al., 1988]).
The extent of cell growth/viability and viral multiplication, at each drug concentration tested, were expressed as percentage of untreated controls. Concentrations resulting in 50% inhibition (CC50 or EC50) were determined by linear regression analysis.

[2] = system: Coxsackievirus B5 (CV-B5); test: Plaque reduction assay, CV-B5 in Vero-76 monolayers; format: cell-based; conditions: Enterovirus B

Compound | melting point [°C] | other results
O=C(O)CCC(=O)Nc1ccc(Cn2nnc3ccccc32)cc1 | 193 to 195 | –
O=C(O)CCCC(=O)Nc1ccc(Cn2nnc3ccccc32)cc1 | 152 to 154 | –
O=C(O)CCCCC(=O)Nc1ccc(Cn2nnc3ccccc32)cc1 | 134 to 136 | –
O=C(O)c1ccc(C(=O)Nc2ccc(Cn3nnc4ccccc43)cc2)cc1 | > 300 | –
O=C(O)c1cccc(C(=O)Nc2ccc(Cn3nnc4ccccc43)cc2)n1 | 230 to 232 | –
O=C(O)c1ccc(C(=O)Nc2ccc(Cn3nnc4ccccc43)cc2)s1 | > 300 | –
Cc1cc2nnn(Cc3ccc(NC(=O)CCC(=O)O)cc3)c2cc1C | 218 to 220 | –
Cc1cc2nnn(Cc3ccc(NC(=O)CCCC(=O)O)cc3)c2cc1C | 270 to 272 | –
Cc1cc2nnn(Cc3ccc(NC(=O)CCCCC(=O)O)cc3)c2cc1C | 203 to 204 | –
Cc1cc2nnn(Cc3ccc(NC(=O)/C=C/C(=O)O)cc3)c2cc1C | 256 to 258 | –
Cc1cc2nnn(Cc3ccc(NC(=O)c4ccc(C(=O)O)cc4)cc3)c2cc1C | > 300 | –
Cc1cc2nnn(Cc3ccc(NC(=O)c4cccc(C(=O)O)n4)cc3)c2cc1C | 214 to 216 | –
Cc1cc2nnn(Cc3ccc(NC(=O)c4ccc(C(=O)O)s4)cc3)c2cc1C | > 300 | –
O=C(O)CCC(=O)Nc1ccc(Cn2nnc3cc(Cl)c(Cl)cc32)cc1 | 214 to 216 | –
O=C(O)CCCC(=O)Nc1ccc(Cn2nnc3cc(Cl)c(Cl)cc32)cc1 | 173 to 175 | –
O=C(O)CCCCC(=O)Nc1ccc(Cn2nnc3cc(Cl)c(Cl)cc32)cc1 | 228 to 230 | –
O=C(O)c1cccc(C(=O)Nc2ccc(Cn3nnc4cc(Cl)c(Cl)cc43)cc2)n1 | 175 to 177 | –
O=C(CCC(=O)Nc1ccc(-n2nnc3cc(Cl)c(Cl)cc32)cc1)Nc1ccc(-n2nnc3cc(Cl)c(Cl)cc32)cc1 | 264 to 265 | –
O=C(CCCCC(=O)Nc1ccc(-n2nnc3cc(Cl)c(Cl)cc32)cc1)Nc1ccc(-n2nnc3cc(Cl)c(Cl)cc32)cc1 | 293 to 294 | –
O=C(Nc1ccc(-n2nnc3cc(Cl)c(Cl)cc32)cc1)c1ccc(C(=O)Nc2ccc(-n3nnc4cc(Cl)c(Cl)cc43)cc2)cc1 | 197 to 199 | –
O=C(Nc1ccc(-n2nnc3cc(Cl)c(Cl)cc32)cc1)c1cccc(C(=O)Nc2ccc(-n3nnc4cc(Cl)c(Cl)cc43)cc2)n1 | > 300 | –
O=C(O)c1cccc(C(=O)Nc2ccc(-n3nnc4cc(Cl)c(Cl)cc43)cc2)n1 | 240 | –
O=C(Nc1ccc(-n2nc3cc(Cl)c(Cl)cc3n2)cc1)c1ccc(C(=O)Nc2ccc(-n3nc4cc(Cl)c(Cl)cc4n3)cc2)cc1 | > 300 | –
O=C(Nc1ccc(-n2nc3cc(Cl)c(Cl)cc3n2)cc1)c1cccc(C(=O)Nc2ccc(-n3nc4cc(Cl)c(Cl)cc4n3)cc2)n1 | > 300 | –

Compound | melting point [°C] | other results
O=C(Nc1ccc(-n2nc3cc(Cl)c(Cl)cc3n2)cc1)c1ccc(C(=O)Nc2ccc(-n3nc4cc(Cl)c(Cl)cc4n3)cc2)s1 | > 300 | –
O=C(O)c1cccc(C(=O)Nc2ccc(-n3nc4cc(Cl)c(Cl)cc4n3)cc2)n1 | 240 | –
O=C(CCC(=O)Nc1ccc(Cn2nnc3ccccc32)cc1)Nc1ccc(Cn2nnc3ccccc32)cc1 | 255 to 257 | –
O=C(CCCC(=O)Nc1ccc(Cn2nnc3ccccc32)cc1)Nc1ccc(Cn2nnc3ccccc32)cc1 | 237 to 238 | –
O=C(CCCCC(=O)Nc1ccc(Cn2nnc3ccccc32)cc1)Nc1ccc(Cn2nnc3ccccc32)cc1 | 231 to 232 | –
O=C(Nc1ccc(Cn2nnc3ccccc32)cc1)c1ccc(C(=O)Nc2ccc(Cn3nnc4ccccc43)cc2)cc1 | > 300 | –
O=C(Nc1ccc(Cn2nnc3ccccc32)cc1)c1cccc(C(=O)Nc2ccc(Cn3nnc4ccccc43)cc2)n1 | 111 to 112 | –
O=C(Nc1ccc(Cn2nnc3ccccc32)cc1)c1ccc(C(=O)Nc2ccc(Cn3nnc4ccccc43)cc2)s1 | > 300 | –
Cc1cc2nnn(Cc3ccc(NC(=O)CCC(=O)Nc4ccc(Cn5nnc6cc(C)c(C)cc65)cc4)cc3)c2cc1C | 270 to 272 | –
Cc1cc2nnn(Cc3ccc(NC(=O)CCCC(=O)Nc4ccc(Cn5nnc6cc(C)c(C)cc65)cc4)cc3)c2cc1C | 253 to 255 | –
Cc1cc2nnn(Cc3ccc(NC(=O)CCCCC(=O)Nc4ccc(Cn5nnc6cc(C)c(C)cc65)cc4)cc3)c2cc1C | 283 to 285 | –
Cc1cc2nnn(Cc3ccc(NC(=O)/C=C/C(=O)Nc4ccc(Cn5nnc6cc(C)c(C)cc65)cc4)cc3)c2cc1C | 117 to 119 | –
Cc1cc2nnn(Cc3ccc(NC(=O)c4cccc(C(=O)Nc5ccc(Cn6nnc7cc(C)c(C)cc76)cc5)n4)cc3)c2cc1C | 186 to 188 | –
Cc1cc2nnn(Cc3ccc(NC(=O)c4ccc(C(=O)Nc5ccc(Cn6nnc7cc(C)c(C)cc76)cc5)s4)cc3)c2cc1C | 225 to 227 | –
O=C(CCCCC(=O)Nc1ccc(Cn2nnc3cc(Cl)c(Cl)cc32)cc1)Nc1ccc(Cn2nnc3cc(Cl)c(Cl)cc32)cc1 | > 300 | –
O=C(/C=C/C(=O)Nc1ccc(Cn2nnc3cc(Cl)c(Cl)cc32)cc1)Nc1ccc(Cn2nnc3cc(Cl)c(Cl)cc32)cc1 | > 300 | –
O=C(Nc1ccc(Cn2nnc3cc(Cl)c(Cl)cc32)cc1)c1cccc(C(=O)Nc2ccc(Cn3nnc4cc(Cl)c(Cl)cc43)cc2)n1 | > 300 | –
O=C(Nc1ccc(Cn2nnc3cc(Cl)c(Cl)cc32)cc1)c1ccc(C(=O)Nc2ccc(Cn3nnc4cc(Cl)c(Cl)cc43)cc2)s1 | > 300 | –
C#C[C@@]1(O)[C@H](O)[C@@H](CO)O[C@H]1n1ccc(N)nc1=O [Compound 2ec, 2′-C-ethynyl-cytidine, reference compound] | – | EC50 (Poliovirus type-1 (Sb-1)): 23 µM; CC50 [1]: > 100 µM
O=C(O)CCC(=O)Nc1ccc(-n2nnc3cc(Cl)c(Cl)cc32)cc1 [Compound 4a, 4-((4-(5,6-Dichloro-1H-Benzo[d][1,2,3]Triazol-1-yl)phenyl)amino)-4-oxobutanoic Acid] | 163 to 164 | EC50 (Poliovirus type-1 (Sb-1)): > 90 µM; EC50 [2]: 13 µM; CC50 [1]: 90 µM
O=C(O)CCCC(=O)Nc1ccc(-n2nnc3cc(Cl)c(Cl)cc32)cc1 [Compound 4b, 5-((4-(5,6-Dichloro-1H-Benzo[d][1,2,3]Triazol-1-yl)phenyl)amino)-5-oxopentanoic Acid] | 106 to 108 | EC50 (Poliovirus type-1 (Sb-1)): 44 µM; EC50 [2]: 45 µM; CC50 [1]: > 100 µM
O=C(O)CCCCC(=O)Nc1ccc(-n2nnc3cc(Cl)c(Cl)cc32)cc1 [Compound 4c, 6-((4-(5,6-Dichloro-1H-Benzo[d][1,2,3]Triazol-1-yl)phenyl)amino)-6-oxohexanoic Acid] | 148 to 150 | EC50 (Poliovirus type-1 (Sb-1)): > 37 µM; EC50 [2]: 9 µM; CC50 [1]: 37 µM
O=C(CCC(=O)Nc1ccc(Cn2nnc3cc(Cl)c(Cl)cc32)cc1)Nc1ccc(Cn2nnc3cc(Cl)c(Cl)cc32)cc1 [Compound 9a, N ^1,N ^4-Bis(4-((5,6-Dichloro-1H-Benzo[d][1,2,3]Triazol-1-yl)methyl)phenyl)Succinamide] | > 300 | EC50 (Poliovirus type-1 (Sb-1)): 43 µM; EC50 [2]: 23 µM; CC50 [1]: > 100 µM
Cc1cc(CCCOc2c(C)cc(-c3noc(C(F)(F)F)n3)cc2C)on1 [P, Pleconaril, reference compound] | – | EC50 [2]: 0.005 µM; CC50 [1]: > 100 µM
